Measured values as given in PubChem BioAssay AID179 (DTP/NCI, 2004).
Activity calls are given as the source filed them.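 Rule for the calls: active = compounds giving half or more protection of infected cells from virus-caused growth loss, again on retest; inactive = the rest.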

System: CEM cells HIV-1 protection, formazan growth assay
Experiment: NCI AIDS Antiviral Assay
Details: for IC50: measured here: growth of uninfected CEM cells
How it was run: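 Human CEM cells, uninfected and HIV-1-infected, received five drug concentrations, and growth was read by soluble formazan assay. Compounds giving at least 50% protection were retested; reproducible 100% protection defined confirmed active.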

| Structure (SMILES) | EC50 [µM] | IC50 [µM] | outcome |
| --- | --- | --- | --- |
| Cc1cc2c(C(C)C)c(O)c(O)c(C=Nc3ccccc3S)c2c(O)c1-c1c(C)cc2c(C(C)C)c(O)c(O)c(C=Nc3ccccc3S)c2c1O | > 200 | 16.2 | – |
| O=C(CC1C(=O)Nc2ccccc2S1=O)Nc1cc(Cl)ccc1Cl (stereo unspecified) | > 3.8 | > 3.8 | – |
| COC(=O)[C@@H]1C[C@@H]2c3ccccc3N(S(=O)(=O)c3ccccc3)[C@@H]2N1C(=O)OC | > 200 | > 200 | – |
| O=C1N[C@H]2CS(=O)(=O)C[C@H]2N1 | > 200 | > 200 | – |
| N#Cc1[nH]c(=O)n(-c2cccc3ccccc23)c1N | > 200 | > 200 | – |
| O=S(=O)(SCCCCSS(=O)(=O)c1ccc(Cl)cc1)c1ccc(Cl)cc1 | 8.13 | 9.55 | – |
| COc1cc(C(C#N)NNC(=O)c2ccccc2O)ccc1O (stereo unspecified) | > 5.75 | 0.427 | – |
| CCN(C)c1nc(N(C)CC)c2nc(N(C)CC)nc(N(C)CC)c2n1 | > 501 | 120 | – |
| COC(=O)c1cc2c(C(=O)OC)cc1CSCc1cccc(c1)CSC2 | > 200 | > 200 | – |
| C=C1C[C@](OC)([C@H](O)C(=O)N[C@@H](OC)[C@@H]2C[C@@H](O)C(C)(C)[C@@H](C[C@@H](COC)OC)O2)O[C@H](C)[C@@H]1C | – | – | inactive |
| O=C(O)c1ccccc1/C=N\N(CCO)C1=NCCN1 | > 200 | > 200 | – |
| CC1=CC(=O)c2c(C=O)c(O)c(O)c(C(C)C)c2C1=O | > 95.5 | 1.91 | – |
| COc1ccc(Br)c(C=Nc2cccc3cc(OC)c(OC)cc23)c1 | – | – | inactive |
| COc1c(I)c(OC)c2c(c1I)O[C@@H]1OCC[C@H]21 | > 501 | 240 | – |
| CC1(c2ccc(F)cc2)C(C#N)C(=O)NC(=O)C1C#N (stereo unspecified) | > 912 | 170 | – |
| Nc1c(N=Nc2ccc(/C=C/c3ccc(N=Nc4cc(S(=O)(=O)O)c5cccc(S(=O)(=O)O)c5c4N)cc3S(=O)(=O)O)c(S(=O)(=O)O)c2)cc(S(=O)(=O)O)c2cccc(S(=O)(=O)O)c12 | 8.71 | 77.6 | – |
| Cc1cc(=O)[nH]c(N/N=C/c2ccc(Cl)c(Cl)c2)n1 | > 24.5 | 12.3 | – |
| C[N+]1(C)CCCC1C(=O)[O-] (stereo unspecified) | > 1740 | > 1740 | – |
| C/C=C/CC(S(=O)(=O)c1ccccc1)S(=O)(=O)c1ccccc1 | > 100 | > 100 | – |
| CC(=O)Nc1ccc(S(=O)(=O)NNC(=O)NNS(=O)(=O)c2ccc(NC(C)=O)cc2)cc1 | > 7.41 | > 7.41 | – |
| CN(C)c1ccc(S(=O)c2ccc(N(C)C)cc2)cc1 | > 34.7 | > 34.7 | – |

| Structure (SMILES) | EC50 [µM] | IC50 [µM] | outcome |
| --- | --- | --- | --- |
| COc1ccc(C2C3=C(COC3=O)Oc3cc4c(cc32)OCO4)c(OC)c1 (stereo unspecified) | > 200 | 12.3 | – |
| S=c1oc(CCCCCCCCc2nn(CNc3ccccc3)c(=S)o2)nn1CNc1ccccc1 | > 200 | > 200 | – |
| CCOC(=O)C(NCc1cccc(C(F)(F)F)c1)(NC(=O)CC)C(F)(F)F (stereo unspecified) | > 200 | > 100 | – |
| c1ccc2c(CN3CCC(C4CCN(Cc5cccc6ccccc56)CC4)CC3)cccc2c1 | > 200 | 0.933 | – |
| CC1(C)CC(=O)C2=C(C1)OC(N)=C(c1nc(-c3ccccc3)cs1)C2c1ccc(Br)cc1 (stereo unspecified) | > 200 | 22.9 | – |
| CN(/N=C(\C(=O)O)c1ccccc1)C1=NCCCCN1 | > 200 | > 100 | – |
| CCC(C=O)P1(=O)OC(C)(C)CN1C(C)(C)C (stereo unspecified) | > 200 | 64.6 | – |
| COc1ccc(S(=O)(=O)NNS(C)(=O)=O)cc1 | > 447 | 87.1 | – |
| CC[C@]1(O)C[C@H]2CN(CCc3c([nH]c4ccccc34)[C@@](C(=O)OC)(c3cc4c(cc3OC)N(C)[C@H]3[C@@](O)(C(=O)OC)[C@H](OC(C)=O)[C@]5(CC)C=CCN6CC[C@]43[C@@H]65)C2)C1 | > 0.0302 | 0.000355 | – |
| COc1ccc(-n2nc(C)cc(Cl)c2=O)cc1 | > 145 | > 145 | – |
| O=C1/C(=C/c2ccc(Br)s2)NC(=S)N1CN1CCCCC1 | > 200 | 38 | – |
| COC(OC)C(=O)[C@H]1[C@H](C(=O)OCC2OC(n3cc(C)c(=O)[nH]c3=O)CC2N=[N+]=[N-])C[C@H]2[C@@H]3CCC4=CC(=O)C=C[C@]4(C)[C@H]3[C@@H](O)C[C@@]21C (stereo partly specified) | 0.0331 | 13.2 | – |
| O=C([O-])[C+](C=Cc1cccc2ccccc12)C(=O)O | > 708 | 257 | – |
| CCOC(=O)C(CCC1OCCO1)C(C)=O (stereo unspecified) | > 200 | > 200 | – |
| CC(=O)Nc1sccc1S(=O)(=O)c1ccsc1NC(C)=O | > 200 | 5.62 | – |
| CS(=O)(=O)N1CC(CI)c2ccc(O)cc21 (stereo unspecified) | > 200 | 2.4 | – |
| CCc1cccc(C(C)C)c1NC(=O)C(=O)C(Cc1nc2ccccc2[nH]c1=O)C(=O)OC (stereo unspecified) | > 112 | > 112 | – |
| C=C1CC(c2ccc(S(=O)(=O)N3CCOCC3)cc2)OC1=O (stereo unspecified) | > 200 | 2.82 | – |
| O=c1ccccc2c(/C=C/c3ccccc3)nn(-c3ccccc3)c12 | – | – | inactive |
| N/N=C1\C(=O)N(Cc2ccccc2)C(=O)C1C(=O)NCc1ccccc1 (stereo unspecified) | > 7.76 | > 7.76 | – |
| CC(C)(C)c1cc(Oc2ccc(C#N)c(C#N)c2)cc(C(C)(C)C)c1 | > 40.7 | > 40.7 | – |

| Structure (SMILES) | EC50 [µM] | IC50 [µM] | outcome |
| --- | --- | --- | --- |
| O=C(c1cc(=O)c2ccc(O)cc2o1)c1ccc(Cl)cc1Cl | > 204 | 18.6 | – |
| Nc1nc(N)c(-c2ccccc2)c(CCC(=O)Nc2ccc(Cl)cc2)n1 | > 490 | 24 | – |
| CCOC(=O)c1nc2ccc(C(F)(F)F)cc2nc1Nc1ccc(OC)c(OC)c1 | > 200 | > 200 | – |
| COc1cc(CC2C(=O)OCC2[C@@H](OC(C)=O)c2ccc3c(c2)OCO3)c(Br)c(OC)c1OC (stereo partly specified) | > 50.1 | 43.7 | – |
| N#CNC(=NCc1ccccc1)NCCc1c[nH]c2ccccc12 | 145 | 162 | – |
| O=[N+]([O-])c1cc(Br)cc2cc(Cl)cnc12 | – | – | inactive |
| NNC(=O)C1CCC(=O)N1S(=O)(=O)c1ccccc1 (stereo unspecified) | – | – | inactive |
| Cc1cc(Nc2ccc(S(=O)(=O)O)cc2)c2ccccc2n1 | > 200 | > 200 | – |
| Nc1nc(N)c(N=O)c(Nc2ccc(O)cc2)n1 | > 200 | 170 | – |
| CC12CCC(C)(O1)C1C(=O)N(c3nccs3)C(=O)C12 (stereo unspecified) | > 891 | > 891 | – |
| C1=C2CN3CCC45c6ccccc6N6CCC(OC1)C(C2CC34)C65 (stereo unspecified) | > 776 | 302 | – |
| CC(=O)Nc1[nH]c(=O)[nH]c(=O)c1N(C(C)=O)C(C)=O | > 933 | > 933 | – |
| N#CCCN1C(=O)CCC2(CCC(=O)N(CCC#N)C2=O)C1=O | > 794 | > 794 | – |
| CC1=NN(C(=O)c2ccc(Cl)cc2)C(=O)/C1=C/c1cccc([N+](=O)[O-])c1 | > 19.5 | > 19.5 | – |
| NC(=O)c1cc(NC(=O)c2ccc(C(=O)Nc3cc(C(N)=O)cc(C4=NCCN4)c3)cc2)cc(C2=NCCN2)c1 | > 100 | > 100 | – |
| CC(=O)OC(C)(C)/C=C/C(=O)[C@](C)(O)[C@H]1[C@H](O)C[C@@]2(C)[C@@H]3CC=C4[C@@H](C[C@H](O)C(=O)C4(C)C)[C@]3(CO)C(=O)C[C@]12C | > 4.37 | 0.129 | – |
| Nc1ccc(/C=C/c2ccc(N=Nc3ccc(/C=C/c4ccc(N=Nc5ccc(/C=C/c6ccc(N=Nc7ccc(/C=C/c8ccc(N)cc8S(=O)(=O)O)c(S(=O)(=O)O)c7)cc6S(=O)(=O)O)c(S(=O)(=O)O)c5)cc4S(=O)(=O)O)c(S(=O)(=O)O)c3)cc2S(=O)(=O)O)c(S(=O)(=O)O)c1 | 1.78 | 186 | – |
| COC1CC(N)C(O)C(CN=[N+]=[N-])O1 (stereo unspecified) | – | – | inactive |
| CCCCCCCCCCCCCCCCOC1OC(CS(=O)(=O)O)C(O)C(O)C1O (stereo unspecified) | > 138 | 40.7 | – |
| CCOC(=O)C(=CN1C/C(=C/C(C)=C/c2ccccc2)SC1=S)C(=O)OCC | > 100 | 18.2 | – |
| CCOc1ncn(-c2ccc(NC(=S)Nc3cccc(O)c3)cc2)n1 | > 200 | > 200 | – |

| Structure (SMILES) | EC50 [µM] | IC50 [µM] | outcome |
| --- | --- | --- | --- |
| CCOC(=O)Nc1nc2c([N+](=O)[O-])c(Br)n(C)c2s1 | – | – | inactive |
| COc1cc(OC)c(C#N)c(OC)c1C | – | – | inactive |
| CCN(CC)CCNc1ccc2ncn3c4c(OC)cccc4c(=O)c1c23 | > 50.1 | 0.871 | – |
| Oc1[nH]c2ccccc2c1N=NC1=NCCCCN1 | > 200 | > 200 | – |
| O=C1CSC(c2ccc(Cl)cc2)N1c1ccc(-n2c(-c3ccccc3)nc3ccccc3c2=O)cc1 (stereo unspecified) | > 200 | 67.6 | – |
| NCCS/C=C\C(=O)O | > 1700 | > 1700 | – |
| CC(C)(C)C(=O)OCOP(=O)(OCOC(=O)C(C)(C)C)OCC1OC(n2cc(F)c(=O)[nH]c2=O)CC1O (stereo unspecified) | > 151 | 2.09 | – |
| COc1cccc2c1OC(=O)C(S(=O)(=O)c1ccccc1)C2 (stereo unspecified) | > 562 | > 562 | – |
| COC(=O)c1c(C#C[Si](C)(C)C)c(C#C[Si](C)(C)C)c(C#C[Si](C)(C)C)c(C#C[Si](C)(C)C)c1C(=O)OC | > 50.1 | > 50.1 | – |
| COC1CCC(=O)N1CC/C=C(/Br)[Si](C)(C)C (stereo unspecified) | – | – | inactive |
| COc1cccc(-n2nnc3c(N)nc(N)nc32)c1 | > 200 | > 200 | – |
| COC(CN(C(C)=O)C1CCC2(SCCS2)c2[nH]c3ccccc3c21)OC (stereo unspecified) | > 200 | 123 | – |
| Cn1cc2c(c1-c1ccccc1)[n+](=O)c1ccccc1n2[O-] | 5.13 | 32.4 | – |
| CCN(CC(O)COc1ccc2c(c1)[n+]([O-])nc(N)[n+]2[O-])C(C)=O (stereo unspecified) | > 200 | 23.4 | – |
| [O]=[Sb][c]1ccc(Cl)cc1 | > 200 | 2.63 | – |
| Cc1nccc2c(C)c3sc4ccccc4c3cc12 | > 91.2 | 2.14 | – |
| Cc1ncc([N+](=O)[O-])n1CCNC(=O)CCCCCn1ccnc1[N+](=O)[O-] | – | – | inactive |
| O=C1NC(CO)(CO)CO1 | > 200 | > 200 | – |
| CC(C)N(C(=O)C12C3C4C1C1C2C3C41C(=O)O)C(C)C (stereo unspecified) | > 129 | > 129 | – |
| COc1ccc(/C(C#N)=C/c2ccccc2OC)cc1 | > 200 | 11.5 | – |
